From patent US5326694A, “Process for synthesizing human H2-prorelaxin, human H2-relaxin and fusion proteins thereof” (Howard Florey Institute of Experimental Physiology and …, priority 1982, dated 1994) come the findings set out here.

Ends that are not written are not given here.

The subject of the assay is spontaneous contractions of the rat uterus. Description: rat uterine contractility assay (Wiqvist & Paul). The format is cell-based. On the procedure: Using the above conditions chain combination yields from 1.5 to 6.0% have been achieved as measured by biological activity in the rat uterine contractility assay of Wiqvist & Paul (Acta Endocrinol., 29, 135-136, 1958).
Human relaxin H2 [S-thioethyl Cys^10,11,15 ] A(1-24) (4.2 mg dry wt., 2.4 mg peptide by amino acid analysis, 0.84 μmole) was dissolved in 500 μl of 0.1M glycine buffer pH 10.5 in a 3 ml stoppered plastic centrifuge tube. Human relaxin H2 [S-sulfo Cys^10,11 ] B(-1-24) (1.60 mg, 1.60 mg peptide by amino acid analysis, 0.33 μmole) dissolved in 200 μl of 0.1M glycine buffer pH 10.5 was added and the mixture agitated. An aliquot (23.0 μl, 2.21 μmole DTT) of a stock solution of dithithreitol (DTT) made up in 0.1M glycine buffer pH 10.5 (0.96 μmole DTT in 10 μl) was added to the peptide solution and following a brief agitation the reaction mixture was allowed to stand at 4° C. for 24 hours open to the air. The mixture was then centrifuged and aliquots of the supernatant solution tested for relaxin biological activity in the rat uterine contractility assay.
The synthetic S-sulfonated and S-thioethyl H2 human relaxin A(1-24) peptides were coupled to S-thioethyl H2 human relaxin B(-1-32) using the same chain combination procedures described previously for the shortened B-chain (-1-24). […]

For “hRLX A(1-24)-B(-1-32): Authentic human relaxin H2: synthetic A chain (1-24) combined with full length B chain (-1-32) (Relaxin B chain DSWMEEVIKLCGRELVRAQIAICGMSTWS; Relaxin A chain QLYSALANKCCHVGCTKRSLARFC; ends and bridges not checked; cysteine pairing not given here; UniProt P04090 25-53; P04090 162-185, looked up)”, under “100 μl aliquot of chain combination mixture, compared to native pig relaxin A22 B31 standard”, the “inhibition of uterine contractions by a 100 μl aliquot” value is recorded as “completely inhibited uterine contractions”. Further, the “inhibition of the spontaneous contractions of the rat uterus by aliquots of the chain combination reaction mixture” value (aliquots of supernatant of chain combination mixture) was “inhibited the spontaneous contractions of the rat uterus in a dose-related manner”.
